Source: patent US11952365B2, “Anti-viral compounds” (Aligos Therapeutics, Inc., priority 2020, dated 2024)
Where two headings read alike, the source gives them in different places.

Legend:
[1] = tested on: SARS-CoV-2-GHB-03021/2020; assay: microbe, parasite or virus in culture; type: cell-based; conditions: Severe acute respiratory syndrome coronavirus 2, Vero C1008, 96 h; read-out: VeroE6 + CP (EC50)
[2] = tested on: human beta-coronavirus OC43; assay: microbe, parasite or virus in culture; type: cell-based; conditions: OC43 in HeLa cells, 6 days at 33° C., class symbols, read-out: EC50
[3] = tested on: SARS-CoV-2-GHB-03021/2020; assay: SARS-CoV-2 Infection Model in Huh7 Cells; type: cell-based; conditions: Severe acute respiratory syndrome coronavirus 2, Huh-7, 96 h, SARS-CoV-2, day 4 p.i., MTS
in vitro [4] = conditions: human
[5] = Cytotoxicity plates without OC43 virus (cell-titer-glo); type: cell-based, human; conditions: human; HeLa cells without OC43 virus, class symbols
In short: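 Run as a virus-free counterpart of the OC43 cytopathic-effect assay. Attached HeLa cells received compound dilutions in EMEM with 2% FBS and were kept 6 days at 33 °C. Cell viability was then measured by CellTiter-Glo luminescence.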

in vitro [6] = conditions: African green monkey, VeroE6 + CP (CC50), Vero E6-eGFP cells with CP-100356, absence of virus, MTS
human cathepsin L = target: T1, human cathepsin L (Homo sapiens, UniProt P07711); assay: cathepsin L assay; type: biochemical; conditions: 10 pM human cathepsin L, Z-FR-AMC 2 μM, class symbols
T1 construct: purchased R&D Systems
In short: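 Reactions began by adding 2 μM (final) Z-FR-AMC substrate to 10 pM human cathepsin L that had been preincubated 30 min with inhibitor. Kinetic AMC fluorescence at 355/460 nm over 30 min at 2-min intervals; four-parameter fitting gave IC50 values.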

3CLpro = 3CLpro (Severe acute respiratory syndrome coronavirus 2, UniProt P0DTD1); assay: SARS-CoV-2 3CLpro protease assay (duplex, SAMDI-MS); type: biochemical; set-up: For the duplex assay, 3CLpro and HRV3C was added; conditions: 3CLpro, 30 mins preincubation, class symbols; read-out: SARS-Cov-2 IC50
HRV3C = HRV3C (Human rhinovirus 14, UniProt P03303); assay: HRV3C protease assay (duplex, SAMDI-MS); type: biochemical, HRV; conditions: HRV3C, 30 mins preincubation, read-out: HRV IC50
In short: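 HRV3C was preincubated 30 min with compound alongside 3CLpro at ambient temperature, then two biotinylated peptide substrates were added for 30 min. Quenching used 0.5% formic acid (final). Cleaved product was captured on neutravidin SAMDI arrays and quantified by MALDI-TOF as product/internal-standard AUC ratio; IC50 from four-parameter fit.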

[7] = Betacoronavirus 1, OC43, HeLa, 144 h

Row | Compound | EC50 [1] | EC50 [2, 7] | EC50 ([3]; class symbols) | CC50 (in vitro [4]) | CC50 at 6 days [5] | CC50 (in vitro [6]; numeric bounds) | IC50 (human cathepsin L) | IC50 (3CLpro) | IC50 (HRV3C; bound) | EC50 ([3]; numeric bounds) | IC50 (HRV3C; class symbols) | EC50 [2] | CC50 (in vitro [6]; class symbols)
1 | COc1cccc2[nH]c(C(=O)N3C[C@@H]4CCC[C@@H]4[C@H]3C(=O)NC(CN3CCCC3=O)C(=O)C(=O)NC3CC3)cc12 (single isomer, unassigned) [Compound 113A, (1S,3aR,6aS)—N—((S*)-4-(cyclopropylamino)-3,4-dioxo-1-(2-oxopyrrolidin-1-yl)butan-2-yl)-2-(4-methoxy-1H-indole-2-carbonyl)octahydrocyclopenta[c]pyrrole-1-carboxamide] | 10 to 100 µM | 1 to 10 µM | 10 to 100 µM | > 50 µM | > 10 µM | > 50 µM | ≥ 10 µM | 0.2 to 2 µM | > 10 µM |  |  |  | 
2 | COc1cccc2[nH]c(C(=O)N3C[C@@H]4CCC[C@@H]4[C@H]3C(=O)N[C@H](CN3CCCC3=O)C(=O)C(=O)NC3CC3)cc12 (single isomer, unassigned) [Compound 113B] | 10 to 100 µM | 1 to 10 µM |  | > 50 µM | > 10 µM | > 50 µM | ≥ 10 µM | 2 to 20 µM |  | > 50 µM | 2 to 20 µM |  | 
3 | O=C(NC1CC1)C(=O)C(CC1CC2(CC2)NC1=O)NC(=O)[C@@H]1[C@H]2CCC[C@H]2CN1C(=O)c1cc2c(Cl)cc(Cl)cc2[nH]1 (single isomer, unassigned) [Compound 116A, (1S,3aR,6aS)—N-(4-(cyclopropylamino)-3,4-dioxo-1-((R*)-5-oxo-4-azaspiro[2.4]heptan-6-yl)butan-2-yl)-2-(4,6-dichloro-1H-indole-2-carbonyl)octahydrocyclopenta[c]pyrrole-1-carboxamide] | 1 to 10 µM |  | < 1 µM | > 10 µM | > 10 µM | > 50 µM | ≥ 10 µM | 0.02 to 0.2 µM |  |  | 0.2 to 2 µM | 0.1 to 1 µM | 
4 | O=C(NCc1ccccc1)C(=O)C(C[C@@H]1CCNC1=O)NC(=O)[C@@H]1C[C@@H](c2ccccc2)CN1C(=O)c1cc2ccccc2[nH]1 (stereo partly drawn) [Compound 7] | 1 to 10 µM | 0.1 to 1 µM | 1 to 10 µM | > 10 µM | > 10 µM |  | < 0.1 µM | 0.2 to 2 µM |  |  | 0.2 to 2 µM |  | > 10 µM
5 | O=C[C@H](C[C@@H]1CCCNC1=O)NC(=O)[C@@H]1[C@H]2CCC[C@H]2CN1C(=O)c1cc2ccccc2[nH]1 [Compound 15, (1S,3aR,6aS)-2-(1H-indole-2-carbonyl)-N—((S)-1-oxo-3-((S)-2-oxopiperidin-3-yl)propan-2-yl)octahydrocyclopenta[c]pyrrole-1-carboxamide] | 1 to 10 µM | 0.1 to 1 µM | 1 to 10 µM | > 100 µM | > 10 µM | > 100 µM | 1 to 10 µM | < 0.02 µM |  |  | 0.02 to 0.2 µM |  | 
6 | COc1cccc2[nH]c(C(=O)N3C[C@@H]4CCC[C@@H]4[C@H]3C(=O)NC(C[C@@H]3CCNC3=O)C(=O)C(=O)NCc3ccccc3)cc12 (stereo partly drawn) [Compound 16, 3-[[(1S,3aR,6aS)-2-(4-methoxy-1H-indole-2-carbonyl)-hexahydro-1H-cyclopenta[c]pyrrol-1-yl]formamido]-N-benzyl-2-oxo-4-[(3S)-2-oxopyrrolidin-3-yl]butanamide] | 1 to 10 µM | 0.1 to 1 µM | 1 to 10 µM | > 10 µM | > 10 µM |  | ≥ 10 µM | 0.02 to 0.2 µM |  |  | 0.2 to 2 µM |  | > 10 µM
7 | CC(C)NC(=O)C(=O)C(C[C@@H]1CCCNC1=O)NC(=O)[C@@H]1[C@H]2CCC[C@H]2CN1C(=O)c1cc2ccccc2[nH]1 (stereo partly drawn) [Compound 18, (1S,3aR,6aS)-2-(1H-indole-2-carbonyl)-N-(4-(isopropylamino)-3,4-dioxo-1-((S)-2-oxopiperidin-3-yl)butan-2-yl)octahydrocyclopenta[c]pyrrole-1-carboxamide] | 1 to 10 µM | 0.1 to 1 µM | 1 to 10 µM | > 100 µM | > 10 µM | > 100 µM | ≥ 10 µM | 0.02 to 0.2 µM |  |  | 0.2 to 2 µM |  | 
8 | O=C(NCc1ccccc1)C(=O)C(C[C@@H]1CCNC1=O)NC(=O)[C@@H]1C[C@@H](C(F)(F)F)CN1C(=O)c1cc2ccccc2[nH]1 (stereo partly drawn) [Compound 19, N-benzyl-3-[[(2S,4R)-1-(1H-indole-2-carbonyl)-4-(trifluoromethyl)pyrrolidin-2-yl]formamido]-2-oxo-4-[(3S)-2-oxopyrrolidin-3-yl]butanamide] | 1 to 10 µM | 0.1 to 1 µM | 1 to 10 µM | > 10 µM | > 10 µM | > 100 µM | 0.1 to 1 µM | 0.2 to 2 µM |  |  | 2 to 20 µM |  | 
9 | O=C(NCc1ccccc1)C(=O)[C@H](C[C@@H]1CCNC1=O)NC(=O)[C@@H]1C[C@]2(CN1C(=O)c1cc3ccccc3[nH]1)CC2(F)F [Compound 22] | 10 to 100 µM | 1 to 10 µM | 1 to 10 µM | > 100 µM | > 10 µM | > 100 µM | 0.1 to 1 µM | 0.2 to 2 µM |  |  | 2 to 20 µM |  | 
10 | O=C(NCc1ccccc1)C(=O)[C@H](C[C@@H]1CCNC1=O)NC(=O)[C@@H]1C[C@@]2(CN1C(=O)c1cc3ccccc3[nH]1)CC2(F)F [Compound 23] | 1 to 10 µM | 0.1 to 1 µM | 1 to 10 µM | > 100 µM | > 10 µM | > 100 µM | 0.1 to 1 µM | 0.02 to 0.2 µM |  |  | 2 to 20 µM |  | 
11 | O=C(NCc1ccccc1)C(=O)[C@H](C[C@@H]1CCNC1=O)NC(=O)[C@@H]1CC2(CCN1C(=O)c1cc3ccccc3[nH]1)CC2 [Compound 24] | 1 to 10 µM | 0.1 to 1 µM | 1 to 10 µM | > 10 µM | > 10 µM | > 100 µM | 0.1 to 1 µM | 0.02 to 0.2 µM |  |  | 20 to 100 µM |  | 
12 | C[C@@H]1C[C@@H](C(=O)N[C@@H](C[C@@H]2CCNC2=O)C(=O)C(=O)NCc2ccccc2)N(C(=O)c2cc3ccccc3[nH]2)C1 [Compound 25] | 10 to 100 µM | 1 to 10 µM | 10 to 100 µM | > 100 µM | > 10 µM | > 100 µM | 0.1 to 1 µM | 2 to 20 µM |  |  | 2 to 20 µM |  | 
13 | CC1(C)CCN(C(=O)c2cc3ccccc3[nH]2)[C@H](C(=O)NC(C[C@@H]2CCNC2=O)C(=O)C(=O)NCc2ccccc2)C1 (stereo partly drawn) [Compound 26, (2S)—N-(4-(benzylamino)-3,4-dioxo-1-((S)-2-oxopyrrolidin-3-yl)butan-2-yl)-1-(1H-indole-2-carbonyl)-4,4-dimethylpiperidine-2-carboxamide] | 10 to 100 µM | 0.1 to 1 µM | 10 to 100 µM | > 100 µM | > 10 µM | > 100 µM | < 0.1 µM | 0.02 to 0.2 µM |  |  | 2 to 20 µM |  | 
14 | COc1cccc2[nH]c(C(=O)N3C[C@@H]4CCC[C@@H]4[C@H]3C(=O)N[C@@H](C[C@@H]3CCNC3=O)C(=O)CO)cc12 [Compound 27, (1S,3aR,6aS)—N-[(2S)-4-hydroxy-3-oxo-1-[(3S)-2-oxopyrrolidin-3-yl]butan-2-yl]-2-(4-methoxy-1H-indole-2-carbonyl)-hexahydro-1H-cyclopenta[c]pyrrole-1-carboxamide] | 1 to 10 µM | 0.1 to 1 µM | 1 to 10 µM | > 100 µM | > 10 µM | > 100 µM | ≥ 10 µM | < 0.02 µM |  |  | 2 to 20 µM |  | 
15 | COc1cccc2[nH]c(C(=O)N3C[C@@H]4CCC[C@@H]4[C@H]3C(=O)N[C@@H](C[C@@H]3CCNC3=O)C(=O)COCc3ccccc3)cc12 [Compound 27A, (1S,3aR,6aS)—N-[(2S)-4-(benzyloxy)-3-oxo-1-[(3S)-2-oxopyrrolidin-3-yl]butan-2-yl]-2-(4-methoxy-1H-indole-2-carbonyl)-hexahydro-1H-cyclopenta[c]pyrrole-1-carboxamide] | 1 to 10 µM | < 0.1 µM | 1 to 10 µM | > 10 µM | > 10 µM | > 100 µM | ≥ 10 µM | 0.02 to 0.2 µM |  |  | 2 to 20 µM |  | 
